For assay [1], the system named is A375 cells. As to the kind of experiment: Ann/PI double staining apoptosis, A375. Type of assay: cell-based, human. On the procedure: (§1) The results were ex pressed as a p er centage of a v alue obtained for the untr eated control cells that was arbitrarily set to be 100%. A non- linear regression analysis of obtained results was done b y using Gr aphPad Prism software to calculat e IC50 values.
3.3. AnnexinV-FITC/P I and caspase det ection. […]
C ells were anal yz ed b y
C yFlow® Space Part ec u sing the PartecFloM ax ® software.
(§2) 3.4. Cell staining with CFSE.
(§3) To quantify cell division rate, cells were incubated for 10 min at 37 °C in the presence of […]
(§4) subsequentl y quantified using flow c ytomet r y.
(§5) Cell motilit y and proliferation was anal yz ed using wound healing assa y. A375 and 518A2 cells were cultivated in 6-well plates until 80% of confluence in monola yers w as reached. Th e scratch was made using a steri le pipette tip which was drawn across the center of the wells. The scratch ed cell la yers w ere wash ed twice with fres h PBS to remove loose or damaged cells. Cells […]
(§6) 4% paraformald eh yde (PFA) for 10 min at room temperature . The wounds were digitally photographed using a Ni kon inverted microscope TS2 with 5 MPIX cam era.
(§7) 3.6. Measurement of intracellular nitric oxide

The subject of assay [2] is A375 cells. As to the kind of experiment: Caspase activation (ApoStat), A375. The note with it: A375, 48 h. Type of assay: cell-based, human. On the procedure: as §1
3.3. AnnexinV-FITC/P I and caspase det ection.
A375 cells were treated with 5 for 48 h, trypsinized, and stained with AnnexinV-FITC (Ann) or propidium iodide (PI), or apostat as proposed by the manufacturer. C ells were anal yz ed b y C yFlow® Space Part ec u sing the PartecFloM ax ® software.
as §2, §3, §4, §5, §6, §7

The test system of assay [3] is A375 cells. As to the kind of experiment: Intracellular NO (DAF), A375. Type of assay: cell-based, human. The conditions noted are these: A375, 48 h; untreated 40 ± 7. On the procedure: Given that analogue 5 is designed for NO release, the intracellular release of nitric oxide and production of reactive oxygen species (ROS)/reactive nitrogen species (RNS) was measured by means of redox-sensitive dyes — 4-amino-5-methylamino-2′,7′-difluorofluorescein diacetate (DAF) and dihydrorhodamine-123 (DHR) — after exposure for 48 h (Fig. 11). […] It is well documented that highly intensified production of ROS/RNS is connected with extreme cell damage and consequent cell death, whereas moderate ROS production is involved in the regulation of intracellular processes often involved in cell cycle arrest, proliferation, and differentiation[63],[64]. Apart from the moderate intracellular NO release, it was important to evaluate whether 5 released NO extracellularly. The production of NO from a nitrate group is a three-electron reduction process that can happen by a number of possible 2e^– and 1e^– pathways, commonly involving the initial liberation of a nitrite. A common method of detecting the release of NO in the extracellular compartment is the detection of nitrite ions by the Griess reaction, which quantifies the nitrite resulting from the oxidation of NO[66],[67]. […] Introduction of a nitrate moiety was also found to be beneficial in the case of rofecoxib. […]

Assay [4] has as its system four melanoma and four colon cancer cell lines. Kind of assay: MTT and CV viability, whole panel of cell lines. Type of assay: cell-based. The note with it: 48 h. On the procedure: Both melanoma and colon cancer are tumor types tightly connected with inflammation, while the expression of COX-2 in the selected cell lines was highly variable. Since a lot of discrepancies were found in the literature concerning the expression of this enzyme[5],[48]–[53], both COX-1 and COX-2 expression was analyzed by Western blot. […] The cells were treated with a wide range of doses of 4a–c, 5, and 6 for 48 h and cell viability was determined by MTT (3-(4,5-dimethylthiazol-2-yl)-2,5-diphenyltetrazolium bromide) and CV (crystal violet) assays. The obtained IC50 values were similar for both assays (Table 1).
Reagents were obtained from Sigma (St. Louis, MO) unless indicated otherwise. […]
S ystems, Minneapolis, MN USA). […] After being detached b y tr ypsinization, cells were seeded in defined number as follows: 2.5 × 10^3 cells/well in 96-well plates for viability assessment and 2 × 10^4 cells/well in 24-well plates for flow cytometry. […]
Before treatment, non- adherent cells were removed. Compounds 4a- c, 5 and 6 were dissolved in DMSO and stored at −20 °C for a m onth. […]
The number of viable cel ls in culture was estimated by the MTT (3-(4,5- dimethylthiazol- 2-yl ) - 2,5- diphenyltetrazolium bromide) and CV (crystal violet) tests. Cells were incubated in the presence of compounds 4a- c, 5 and 6 for 48 h, then the viability was measured as described.4 […]

Regarding “4-[4-(methylnitrooxy)phenyl]-3-(1,2-dicarba-closo-dodecaboranyl)furan-2(5 H)-one [Compound 5]”, the “apoptosis (Ann/PI)” value in assay [1] (A375, 48 h) was “did not promote significant apoptosis”. Besides, the “apoptosis after prolonged incubation” value in assay [1] (A375, 72 h total) is given as “not accompanied by the appearance of apoptotic cells”. Also, the “total caspase activity (ApoStat)” value in assay [2] is “only a slight enhancement of total caspase activity”. For the same substance, in assay [3], the “intracellular NO, mean fluorescence (DAF)” value was determined as 60.5 ± 9.1. Moreover, the “effect on cell viability across tested cell lines” value in assay [4] is given as “highest decrease in cell viability in all of the melanoma cell lines”.

Values taken from article PMC7076013 (Scientific Reports, 2020).
